Measured values from patent US4301313A, “Halogenated ethynyl biphenyls” (Eli-Lilly and Company, priority 1974, dated 1981).
Several values for one entry are separate records, joined by “and”; a condition that tells them apart may be missing. Identical values can stand only once.

Tests used:
[1] = carrageenin-induced hind paw inflammation; type: in vivo; conditions: Rattus norvegicus
Experimental: Representative compounds were also evaluated for anti-inflammatory activity in the test method described by C. A. Winter at 111 Proc. Soc. Exp. Biol. Med., 544 (1962). In this method, inflammation is created by injecting carrageenin into the hind paw of rats. Test compounds are administered prior to injection to determine percent inhibition of the subsequent inflammation, in comparison with control animals.

[2] = ultraviolet-induced erythema blocking test, oral (modified Winder method); type: in vivo, guinea pig (male albino); conditions: Cavia porcellus, guinea pig, weighted scores 1.0-2.5 h after UV, dose which provides 50% inhibition
Experimental: (§1) The compounds of the present invention were evaluated for anti-inflammatoryactivity by the ultraviolet-induced erythema blocking test. The test procedures were a modification of the Winder method (Winder, C. V.; Wax, J.; Burr, V.; Been, M.; and Posiere, C. E.: A Study of Pharmacological Influences on Ultraviolet Erythema in Guinea Pigs. Arch. Int. Pharmacodyn. 116: 261, 1958). Male albino guinea pigs weighing 240-300 gm. were used. The hair on the back was clipped and chemically depilated 15-18 hours before each experiment. The animals were fasted overnight, and on the day of the experiment, were randomized and placed in clear plastic partitioned holders 10×20 cm. wide and 15 cm. high.
(§2) The compounds to be tested were suspended in 1% methyl cellulose in water, utilizing a tissue homogenizer. The suspensions were administered orally in a volume of 2.0 ml./kg. of body weight. Control animals received an equal amount of the vehicle.
(§3) The source of ultraviolet light was a Hanovia lamp (Kromayer-Model 10). A notebook reinforcement ring was placed upon the lens of the lamp to provide an area of contrast for grading purposes. The lens was then placed in contact with the skin of the guinea pig's back. Exposure time to UV was for a period of 4 seconds. Beginning one hour after exposure and thereafter at half-hour intervals for another 11/2 hours, the degree of resulting erythema was graded by an arbitrary scoring system based upon the degree of contrast and redness formed. Anti-inflammatory agents delay the development of the erythema and have their greatest effect at the initial grading periods. The scores were, therefore, weighted by factors of 4, 3, 2, and 1 at the 1.0, 1.5, 2.0, and 2.5 hour scoring times, respectively. The erythema was graded as follows:
Total scores from each treatment group of four guinea pigs were compared to the scores of the control group. The percent inhibition was calculated as follows: [formula] In the case of compounds showing inhibition, retesting was carried out at a plurality of doses to enable calculation of an ED50 for each such compound. "ED50 " designates that dose which provides 50% inhibition. Calculation of the ED50 was either by a standard linear regression method or by estimation from a dose-response curve of three or more points. The compounds so tested and their ED50 s were as follows: […]

[3] = ultraviolet-induced erythema test, compound administered 8 or 22 hours prior to exposure; type: in vivo, guinea pig; conditions: 0.5 mg./kg.; for Score 0.5 hours after exposure to ultraviolet: 0.5 h reading; for Score 1.0 hours after exposure to ultraviolet: 1.0 h reading; for Score 1.5 hours after exposure to ultraviolet: 1.5 h reading; for Score 2.0 hours after exposure to ultraviolet: 2.0 h reading; for Score 2.5 hours after exposure to ultraviolet: 2.5 h reading; for Score 3.0 hours after exposure to ultraviolet: 3.0 h reading
Experimental: as §1, §2, §3
Total scores from each treatment group of four guinea pigs were compared to the scores of the control group. The percent inhibition was calculated as follows: [formula] In the case of compounds showing inhibition, retesting was carried out at a plurality of doses to enable calculation of an ED50 for each such compound. "ED50 " designates that dose which provides 50% inhibition. Calculation of the ED50 was either by a standard linear regression method or by estimation from a dose-response curve of three or more points. The compounds so tested and their ED50 s were as follows:
(4-(2-Fluorophenyl)phenyl)acetylene was evaluated again by the procedures of Examples 29-52, except that the compound was administered 8 or 22 hours prior to exposure to ultraviolet light. The dose was uniformly 0.5 mg./kg. Readings were made at half-hour intervals beginning at one-half hour after exposure and ending at three and one-half hours after exposure. Scores were not weighted, and results were recorded only as percent inhibition.

[4] = analgesic activity, acetic acid-induced writhing; type: in vivo, mouse (albino male); conditions: mouse, p.o., dose reducing writhing frequency by 50%; 30, 90, 180 minutes after administration
Experimental: Representative compounds were also evaluated for analgesic activity. The evaluation was conducted by using acetic acid-induced writhing in mice as the pain model. Clinically effective analgesis are effective when tested in this model: see Koster et al., "Acetic Acid for Analgesic Screening," 18 Fed. Proc. 412 (1959).
In a method similar to that reported by Koster et al., standard strain albino male mice weighing 20-22 grams were fasted overnight. The respective compound or vehicle (as control) was administered by gastric lavage (p.o.). Each compound was administered in an aqueous suspension of 1% methylcellulose in water. […] At 30, 90, and 180 minutes after administration, writhing was induced by the intraperitoneal administration of 55 mg./kg. of acetic acid (0.55%). Each treatment group consisted of 5 mice and separate groups were examined at each observation time. The total number of writhes for the treatment group were counted in a 10-minute observation period starting 5 minutes after the acetic acid administration. The treatment totals were compared to controls and a percent inhibition calculated as follows: [formula] […] An ED50, which represented the dose that would reduce the writhing frequency by 50%, was estimated from a dose-reponse curve of three or more points. A dose range was reported if only two points were availale for the dose response curve and they bracketed the 50% level. If data was available at 100 mg./kg., only, then the estimated ED50 was reported simply as less than 100 (<100).

[5] = adjuvant-induced arthritis test (paw volume); type: in vivo, rat (male albino); conditions: rat, oral

Structure (SMILES): C#Cc1ccc(-c2ccccc2F)cc1 [(4-(2-fluorophenyl)phenyl)acetylene]
- inhibition in vivo at 0.3 mg/kg ([1]; 0.3 mg./kg.): 21%
- inhibition in vivo at 0.5 mg/kg ([1]; 0.5 mg./kg.): 6%
- inhibition in vivo at 1.5 mg/kg ([1]; 1.5 mg./kg.): 29%
- inhibition in vivo at 2.5 mg/kg ([1]; 2.5 mg./kg.): 35%
- inhibition in vivo at 5 mg/kg ([1]; 5 mg./kg.): 43%
- inhibition in vivo at 15 mg/kg ([1]; 15 mg./kg.): 56%
- inhibition in vivo at 25 mg/kg ([1]; 25 mg./kg.): 65%
- inhibition in vivo at 50 mg/kg ([1]; 50 mg./kg.): 57%
- ED50 [2]: 0.05 mg/kg
- % Erythema Inhibition ([3]; 8 hours prior to exposure): 71%
- Score 0.5 hours after exposure to ultraviolet ([3]; 8 hours prior to exposure): 0
- Score 1.0 hours after exposure to ultraviolet ([3]; 8 hours prior to exposure): 0
- Score 1.5 hours after exposure to ultraviolet ([3]; 8 hours prior to exposure): 3
- Score 2.0 hours after exposure to ultraviolet ([3]; 8 hours prior to exposure): 6
- Score 2.5 hours after exposure to ultraviolet ([3]; 8 hours prior to exposure): 6
- Score 3.0 hours after exposure to ultraviolet ([3]; 8 hours prior to exposure): 15
- Total Score ([3]; 8 hours prior to exposure, control 104): 30
- % Erythema Inhibition ([3]; 22 hours prior to exposure): 41%
- Score 0.5 hours after exposure to ultraviolet ([3]; 22 hours prior to exposure): 3
- Score 1.0 hours after exposure to ultraviolet ([3]; 22 hours prior to exposure): 4
- Score 1.5 hours after exposure to ultraviolet ([3]; 22 hours prior to exposure): 8
- Score 2.0 hours after exposure to ultraviolet ([3]; 22 hours prior to exposure): 14
- Score 2.5 hours after exposure to ultraviolet ([3]; 22 hours prior to exposure): 17
- Score 3.0 hours after exposure to ultraviolet ([3]; 22 hours prior to exposure): 17
- Total Score ([3]; 22 hours prior to exposure, control 107): 63
- Estimated ED50 [4]: 20 mg/kg
- Percent Inhibition of Volume Increase, Day 7 ([5]; dose 1 (unit not given)): 27% and 22%
- Percent Inhibition of Volume Increase, Day 7 ([5]; dose 3 (unit not given)): 35% and 29%
- Percent Inhibition of Volume Increase, Day 7 ([5]; dose 10 (unit not given)): 30% and 23%
- Percent Inhibition of Volume Increase, Day 14 ([5]; dose 10 (unit not given), Day 14): 5% and 0%
